From patent US6919208B2, “Methods and compositions for enhancing the delivery of a nucleic acid to a cell” (The Children's Hospital of Philadelphia, priority 2000, dated 2005)
Where two headings read alike, the source gives them in different places.

Experiments:
[1] = tested on: A10 cells; assay: p-EGFP-N3 (GFP) plasmid transfection of A10 cells on native type I collagen with cytochalasin D added after lipofection; assay type: cell-based, Rat; conditions: 1 nanomolar
Experimental: A10 cells were grown on native type I collagen. […] Immediately after lipofection, cytochalasin D at a final concentration of 1 nanomolar was either added to cells for thirty minutes, added to cells for an overnight incubation or not added at all (control). The fluorescence of control cells, cells treated with cytochalasin D for thirty minutes, and cells treated with cytochalasin D for an overnight incubation (FIGS. 6A, 6B and 6C, respectively) was assessed. Bright field micrographs were also taken of the control cells, cells treated with cytochalasin D for thirty minutes, and cells treated with cytochalasin D for an overnight incubation (FIGS. 7A, 7B and 7C, respectively).

[2] = tested on: A10 cells
Experimental: A10 cells were grown on native type I collagen containing 0, 15 and 50 micrograms per milliliter of Tenascin C. The cells were transfected with p-EGFP-N3 (green fluorescent protein) plasmid DNA.

## C=C1[C@@H](C)[C@H]2[C@H](Cc3ccccc3)NC(=O)[C@]23[C@H](OC(C)=O)/C=C/[C@@](C)(O)C(=O)[C@@H](C)C/C=C/[C@H]3[C@@H]1O [cytochalasin D]
[1]; added immediately after lipofection
  transfection (GFP expression), time dependence: time-dependent increase in transfection
[1]; overnight exposure
  transfection relative to control cells: notably higher amount of transfection
[1]; thirty minute exposure
  transfection relative to control cells: increased transfection

## Tenascin C: extracellular matrix protein abundantly expressed within remodeling tissues; added to native type I collagen
[2]
  cell morphology (bright field micrograph): normal cell morphology
[2]; 0, 15 and 50 micrograms per milliliter in native type I collagen, 24 h after transfection
  transfection (GFP expression), dose dependence: dose-dependent increase in transfection
[2]; 15 micrograms per milliliter in native type I collagen, 24 h after transfection
  transfection (GFP fluorescence): increased transfection
[2]; 50 micrograms per milliliter in native type I collagen, 24 h after transfection
  transfection (GFP fluorescence): highest degree of transfection
